Assay results from EP0197661A2, “Low-calorie sugar composition” (Takeda Chemical Industries, Ltd., priority 1985, dated 1986).
Marks after values point to notes of the source that are not given here.

System: Male rats (Jcl:SD strain)
Test: Oral sucrose loading in fasted rats with varying dosage of AO-128; blood glucose level
Format: in vivo
Settings: rats fasted 20 hours, mean ± standard deviation
Method: Male rats (Jcl:SD strain, purchased from Clea Japan) aged 6 weeks, which had been raised on commercially available pelleted rat chow (CE-2®, Clea Japan), were fasted for 20 hours and, then, administered orally with 2.5 g/kg of sucrose containing a varying dosage of AO-128. The blood glucose level was determined 30, 60 and 120 minutes after administration.

[1] = AO-128 0.1mg/Kg with 2.5 g/kg sucrose orally
[2] = AO-128 0.2mg/Kg with 2.5 g/kg sucrose orally
[3] = AO-128 0.4mg/Kg with 2.5 g/kg sucrose orally

## OCC(CO)N[C@H]1C[C@](O)(CO)[C@@H](O)[C@H](O)[C@H]1O [AO-128, N-(l,3-dihydroxy-2-propyl)valiolamine]
[1]
  Blood glucose level 0 min.: 69 ± 4 mg/dL
  Blood glucose level 60 min.: 101±2^a mg/dℓ
  Blood glucose level 120 min.: 88±3^a mg/dℓ
  Delta glucose area: 52±5^b mg/dℓ·hr
[2]
  Blood glucose level 30 min.: 102±6^b mg/dℓ
  Delta glucose area: 38±7^a mg/dℓ·hr
[3]
  Blood glucose level 0 min.: 67 ± 4 mg/dL
  Blood glucose level 30 min.: 79±2^a mg/dℓ
  Blood glucose level 60 min.: 77±5^a mg/dℓ
  Blood glucose level 120 min.: 71±5^a mg/dℓ
